Each structure is given as a SMILES string. Counter-ions that a name gives are not always drawn. Like-named read-outs stand apart in the source and are kept apart here.

One may read the Ki as a measure of affinity in units of concentration, obtained from inhibition or displacement.

The experiment addresses human H4 receptor (Homo sapiens (Human), UniProt Q9H3N8). The experiment is described as follows: Binding assay on recombinant human histamine H4 receptor ([3H]histamine competition, SK-N-MC cell membranes). On the procedure:
Binding Assay on Recombinant Human Histamine H4Receptor
Cell pellets from SK-N-MC cells stably or transiently transfected with human H4 receptor (NCBI accession No. AF312230) were used for the binding assays. Cell pellets were homogenized in 50 mM Tris/5 mM EDTA buffer and supernatants from an 800 g spin were collected and recentrifuged at 30,000 g for 30 min. Pellets were rehomogenized in 50 mM Tris/5 mM EDTA buffer. […] Membranes were harvested by rapid filtration using the 96 well Brandel system (Table 1, Brandel) or a cell harvester (Table 1, Cell Harvester) using a Whatman GF/C filter or filter plates treated with 0.5% polyethylenimine (PEI), and washed 4 times with ice-cold 50 mM Tris/5 mM EDTA buffer. Filters were then dried, mixed with scintillant and radioactive counts were determined. […] Where activity is shown as greater than (>) a particular value, the value is the highest concentration tested.

The mark [1] stands for this setting: membranes harvested with cell harvester, [3H]histamine 10 nM, average of results, read-out: Cell Harvester Ki.
Setting [2] is: membranes harvested with 96 well Brandel system, [3H]histamine 10 nM, average of results, read-out: Brandel Ki.

Chain of human H4 receptor (Q9H3N8 whole entry): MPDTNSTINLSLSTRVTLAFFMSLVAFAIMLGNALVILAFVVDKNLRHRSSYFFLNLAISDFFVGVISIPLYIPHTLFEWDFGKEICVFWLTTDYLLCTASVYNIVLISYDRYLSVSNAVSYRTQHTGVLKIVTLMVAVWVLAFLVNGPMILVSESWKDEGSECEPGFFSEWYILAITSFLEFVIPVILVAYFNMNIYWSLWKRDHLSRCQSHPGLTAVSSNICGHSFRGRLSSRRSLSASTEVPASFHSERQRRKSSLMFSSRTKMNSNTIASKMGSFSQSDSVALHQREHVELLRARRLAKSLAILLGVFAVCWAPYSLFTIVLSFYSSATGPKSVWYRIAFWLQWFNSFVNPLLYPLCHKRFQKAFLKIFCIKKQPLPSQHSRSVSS

Turning to `C[C@H]1[C@@H](Nc2nccc(N3CCNCC3)n2)C[C@@H]2C[C@H]1C2(C)C` (stereo in doubt) [Example 71, (4-Piperazin-1-yl-pyrimidin-2-yl)-(2,6,6-trimethyl-bicyclo[3.1.1]hept-3-yl)-amine], the Ki under setting [1] is 377 nM.

Regarding `CC(C)(CO)CNc1nccc(N2CC3CCN[C@H]3C2)n1` (stereo in doubt) [Example 148, 3-({4-[(3aR,6aR)-Hexahydropyrrolo[3,4-b]pyrrol-5(1H)-yl]pyrimidin-2-yl}amino)-2,2-dimethylpropan-1-ol], under setting [1], the Ki is 250 nM.

In the case of `OCCCNc1nccc(N2CC3CCN[C@H]3C2)n1` (stereo in doubt) [Example 159, 3-({4-[(3aR,6aR)-Hexahydropyrrolo[3,4-b]pyrrol-5(1H)-yl]pyrimidin-2-yl}amino)propan-1-ol], under setting [1], the Ki was determined as 266 nM.

In the case of `NC1CCN(c2cnnc(NCC3CC4CCC3C4)c2)C1` (stereo in doubt) [Example 304, 5-[(3S)-3-Aminopyrrolidin-1-yl]-N-(bicyclo[2.2.1]hept-2-ylmethyl)pyridazin-3-amine], the Ki under setting [1] stood at 310 nM.

For the molecule `NC1CCN(c2cnnc(NCCCO)c2)C1` (stereo in doubt) [Example 338, 3-({5-[(3S)-3-Aminopyrrolidin-1-yl]pyridazin-3-yl}amino)propan-1-ol], the Ki under setting [1] was more than 10000 nM.

Take `CNC1CCN(c2cnnc(NCc3ccccn3)c2)C1` (stereo in doubt) [Example 402, 5-[(3S)-3-(Methylamino)pyrrolidin-1-yl]-N-(pyridin-2-ylmethyl)pyridazin-3-amine]: the Ki under setting [1] is more than 10000 nM.

In the case of `CN[C@@H]1CCN(c2ccnc(NC3CC4CCC3C4)c2)C1` (stereo partly drawn) [Example 1, Bicyclo[2.2.1]hept-2-yl[4-((3R)-3-methylamino-pyrrolidin-1-yl)-pyridin-2-yl]amine dihydrochloride], the Ki under setting [2] was determined as 1 nM and the Ki under setting [1] is 0.5 nM.

Consider `CN[C@@H]1CCN(c2ccnc(N[C@@H]3CCOC3)c2)C1` [Example 5, 4-[(3R)-3-(Methylamino)pyrrolidin-1-yl]-N-[(3R)-tetrahydrofuran-3-yl]pyridin-2-amine dihydrochloride], for which, under setting [1], the Ki stood at 8.9 nM.

As for `CN[C@@H]1CCN(c2ccnc(NCC3CCCO3)c2)C1` (stereo partly drawn) [Example 6, 4-[(3R)-3-(Methylamino)pyrrolidin-1-yl]-N-[tetrahydrofuran-2-ylmethyl]pyridin-2-amine dihydrochloride], the Ki under setting [1] was determined as 35.1 nM.

On to `CN[C@@H]1CCN(c2ccnc(NCc3ccc(F)cc3)c2)C1` [Example 7, N-(4-Fluorobenzyl)-4-[(3R)-3-(methylamino)pyrrolidin-1-yl]pyridin-2-amine dihydrochloride], for which the Ki under setting [1] turned out to be 13.7 nM.

For `CN[C@@H]1CCN(c2ccnc(NC3CC3)c2)C1` [Example 8, N-Cyclopropyl-4-[(3R)-3-(methylamino)pyrrolidin-1-yl]pyridin-2-amine dihydrochloride], the Ki under setting [1] stood at 10.6 nM.

With `CN[C@@H]1CCN(c2ccnc(N[C@H]3C[C@H]4C[C@@H]([C@@H]3C)C4(C)C)c2)C1` [Example 9, 4-[(3R)-3-(Methylamino)pyrrolidin-1-yl]-N-[(1S,2S,3S,5R)-2,6,6-trimethylbicyclo[3.1.1]hept-3-yl]pyridin-2-amine], the Ki runs as follows: under setting [2], 1 nM; under setting [1], 0.4 nM.

For `CN[C@@H]1CCN(c2ccnc(N[C@@H]3C[C@@H]4C[C@H]([C@H]3C)C4(C)C)c2)C1` [Example 10, 4-[(3R)-3-(Methylamino)pyrrolidin-1-yl]-N-[(1R,2R,3R,5S)-2,6,6-trimethylbicyclo[3.1.1]hept-3-yl]pyridin-2-amine], the Ki by setting is: under setting [2], 0.5 nM; under setting [1], 0.5 nM.

In the case of `CN[C@@H]1CCN(c2ccnc(NCc3ccccc3)c2)C1` [Example 11, N-Benzyl-4-[(3R)-3-(methylamino)pyrrolidin-1-yl]pyridin-2-amine], under setting [1], the Ki is 12.9 nM.

In the case of `CC(C)Nc1cc(N2CC[C@@H](N)C2)ccn1` [Example 13, 4-[(3R)-3-Aminopyrrolidin-1-yl]-N-(1-methylethyl)pyridin-2-amine], the Ki under setting [1] is 26.2 nM.

As to `CC(C)CNc1cc(N2CC[C@H](N)C2)ccn1` [Example 14, 4-[(3S)-3-Aminopyrrolidin-1-yl]-N-(2-methylpropyl)pyridin-2-amine], the Ki under setting [1] came out at 114 nM.

As to `c1cc(N2CCNCC2)cc(NC2CCCC2)n1` [Example 16, N-Cyclopentyl-4-piperazin-1-ylpyridin-2-amine], the Ki under setting [1] was 48.2 nM.

With `CCCNc1cc(N2CCNCC2)ccn1` [Example 17, 4-Piperazin-1-yl-N-propylpyridin-2-amine dihydrochloride], under setting [1], the Ki was 375 nM.

As to `c1ccc(CNc2cc(N3CCNCC3)ccn2)cc1` [Example 18, N-Benzyl-4-piperazin-1-ylpyridin-2-amine dihydrochloride], the Ki under setting [1] is 527 nM.

As to `CC(C)CNc1cc(N2CCNCC2)ccn1` [Example 19, N-(2-Methylpropyl)-4-piperazin-1-ylpyridin-2-amine dihydrochloride], the Ki under setting [2] was determined as 45.3 nM.

For `CC(C)CNc1cc(N2CCN(C)CC2)ccn1` [Example 21, 4-(4-Methylpiperazin-1-yl)-N-(2-methylpropyl)pyridin-2-amine], the Ki under setting [2] turned out to be 51.4 nM.

With `CC(C)CNc1nccc(N2CC[C@@H](N)C2)n1` [Example 23, 4-[(3R)-3-Aminopyrrolidin-1-yl]-N-(2-methylpropyl)pyrimidin-2-amine], under setting [1], the Ki was found to be 2.7 nM.

As for `N[C@@H]1CCN(c2ccnc(NCC3CC3)n2)C1` [Example 24], the Ki under setting [1] is 3.32 nM.

Take `N[C@@H]1CCN(c2ccnc(NC3CCCC3)n2)C1` [Example 25, 4-[(3R)-3-Aminopyrrolidin-1-yl]-N-cyclopentylpyrimidin-2-amine]: the Ki under setting [1] is 3.8 nM.

`CC(C)(O)CNc1nccc(N2CC[C@@H](N)C2)n1` [Example 27, 1-({4-[(3R)-3-Aminopyrrolidin-1-yl]pyrimidin-2-yl}amino)-2-methylpropan-2-ol]: the Ki under setting [1] worked out at 67.7 nM.

For the molecule `N[C@@H]1CCN(c2ccnc(NC3CCC3)n2)C1` [Example 28, 4-[(3R)-3-Aminopyrrolidin-1-yl]-N-cyclobutylpyrimidin-2-amine], the Ki under setting [1] was 8.4 nM.

As for `N[C@@H]1CCN(c2ccnc(N[C@@H]3CCOC3)n2)C1` [Example 29, 4-[(3R)-3-Aminopyrrolidin-1-yl]-N-[(3R)-tetrahydrofuran-3-yl]pyrimidine-2-amine], the Ki under setting [1] worked out at 58.5 nM.

Turning to `N[C@@H]1CCN(c2ccnc(NC3CCOCC3)n2)C1` [Example 30, 4-[(3R)-3-Aminopyrrolidin-1-yl]-N-(tetrahydro-2H-pyran-4-yl)pyrimidin-2-amine], the Ki runs as follows: under setting [2], 42.4 nM; under setting [1], 91.8 nM.

As for `CC(C)CNc1nccc(N2CCN(C)CC2)n1` [Example 31, Isobutyl-[4-(4-methyl-piperazin-1-yl)-pyrimidin-2-yl]-amine], the Ki under setting [2] turned out to be 69 nM and the Ki under setting [1] came to 76.9 nM.

For `CN[C@@H]1CCN(c2ccnc(Nc3ccccc3)c2)C1` [Example 33, 4-[(3R)-3-(Methylamino)pyrrolidin-1-yl]-N-phenylpyridin-2-amine], the Ki under setting [1] was determined as 0.9 nM.

As for `CNC1CN(c2ccnc(NCC(C)C)c2)C1` [Example 34, 4-[3-(Methylamino)azetidin-1-yl]-N-(2-methylpropyl)pyridin-2-amine], the Ki under setting [1] was found to be 18.1 nM.

Turning to `c1cc(N2CCNCC2)cc(NCC2CC2)n1` [Example 35, N-(Cyclopropylmethyl)-4-piperazin-1-ylpyridin-2-amine], the Ki is, setting by setting: under setting [2], 25.6 nM; under setting [1], 74.7 nM.

`CCCCNc1cc(N2CCNCC2)ccn1` [Example 36, N-Butyl-4-piperazin-1-ylpyridin-2-amine]: the Ki runs as follows: (Cell Harvester Ki (nM)) 104 nM; (read-out: Brandel Ki) 91.3 nM.

With `COCCNc1cc(N2CCNCC2)ccn1` [Example 37, N-(2-Methoxyethyl)-4-piperazin-1-ylpyridin-2-amine], under setting [1], the Ki amounted to 247 nM.

As to `c1ccc(Nc2cc(N3CCNCC3)ccn2)cc1` [Example 38, N-Phenyl-4-piperazin-1-ylpyridin-2-amine], the Ki under setting [1] stood at 275 nM.

Consider `c1cc(N2CCNCC2)cc(NCC2CCCO2)n1` (centres unmarked) [Example 39, 4-Piperazin-1-yl-N-(tetrahydrofuran-2-ylmethyl)pyridin-2-amine], for which the Ki under setting [1] amounted to 554 nM.

For the molecule `Fc1ccc(CNc2cc(N3CCNCC3)ccn2)cc1` [Example 40, N-(4-Fluorobenzyl)-4-piperazin-1-ylpyridin-2-amine], under setting [1], the Ki came to 790 nM.

Regarding `CN[C@@H]1CCN(c2ccnc(NCC(C)(C)C)c2)C1` [Example 41, N-(2,2-Dimethylpropyl)-4-[(3R)-3-(methylamino)pyrrolidin-1-yl]pyridin-2-amine], under setting [1], the Ki turned out to be 2.2 nM.

As to `CN[C@@H]1CCN(c2ccnc(NCCOC)c2)C1` [Example 42, N-(2-Methoxyethyl)-4-[(3R)-3-(methylamino)pyrrolidin-1-yl]pyridin-2-amine], the Ki under setting [1] stood at 31.8 nM.

For the molecule `N[C@@H]1CCN(c2ccnc(NC3CC4CCC3C4)n2)C1` (stereo partly drawn) [Example 43, 4-[(3R)-3-Aminopyrrolidin-1-yl]-N-[bicyclo[2.2.1]hept-2-yl]pyrimidin-2-amine], the Ki under setting [1] stood at 3.3 nM.

For `CN1CCN(c2ccnc(NC3CC4CCC3C4)n2)CC1` (centres unmarked) [Example 44, N-[Bicyclo[2.2.1]hept-2-yl]-4-(4-methylpiperazin-1-yl)pyrimidin-2-amine], the Ki worked out at 31.5 nM under setting [2] and 85.7 nM under setting [1].

Regarding `CN1CCN(c2ccnc(NCC3CC3)n2)CC1` [Example 45, N-(Cyclopropylmethyl)-4-(4-methylpiperazin-1-yl)pyrimidin-2-amine], the Ki under setting [1] came to 7.1 nM.

The record behind these values is patent US9732087B2, “Diamino-pyridine, pyrimidine, and pyridazine modulators of the histamine H4 receptor” (JANSSEN PHARMACEUTICA NV, priority 2008, dated 2017).
